Experimental data reported in patent US11197856B2, “Bicyclic compounds and methods for their use in treating autism” (priority 2013, dated 2021).

Experiments:
[1] = test system: MeCP2 deficient mice; experiment: Survival of MeCP2 deficient mice (Rett Syndrome model); settings: for survival: MeCP2 deficient mice
Experimental: We treat hemizygous MeCP2(1lox) male mice with 20 mg/kg/day of cG-2-AllylP or saline, (0.01% BSA, n=15 per group in survival experiment and n=20 in the LTP experiment). The treatments are administered intraperitoneally from 4 weeks after birth. For the survival experiments the treatment is maintained through the course of the experiment. For the LTP experiment the mice are treated until week 9 when they are used for slice preparation.
MeCP2 deficient mutant mice develop RTT symptoms at about 4-6 weeks of age and […] (Chen et al., 2001. Nat Genet 27: 327-331). We compare the survival of the wild type controls and the MeCP2 deficient animals in vehicle- and cG-2-AllylP-treated groups. Survival is measured weekly from start of treatment (4 weeks) and used to produce Kaplan-Meier survival curves to show the proportion of mice that survive (y axis) at each weekly interval (x axis).
For the survival measurements, the nocturnal activity analysis and the immunoblot analysis, cG-2-AllylP supplied by Neuren Pharmaceuticals Limited is administered daily via intra-peritoneal injections (20 mg/kg, vehicle=saline, 0.01% BSA). The treatment starts at PI 5 and is maintained throughout the course of the experiments. For intracellular physiology experiments, the mice are injected daily with cG-2-AllylP (20 mg/kg body weight, vehicle=saline, 0.01% BSA) for 2 weeks, from P15 to P28-P32 when they are used for acute slice preparation. For optical imaging experiments, mice are injected with cG-2-AllylP (20 mg/kg body weight, vehicle=saline, 0.01% BSA) daily from the day of the lid suture to the day of imaging.
Therefore, we administer cG-2-AllylP orally to MeCP2 deficient mice. Briefly, an aqueous solution or other composition containing a pharmaceutically effective amount of cG-2-AllylP (20 or 80 mg/kg per animal) is administered daily.

[2] = test system: fmr1-knockout mice and wild-type littermates; experiment: Successive Alleys Test; format: in vivo
Experimental: The fmr1-knockout (KO2) mice (C57BL/6 background) were housed in groups of the same genotype in a temperature and humidity controlled room with a 12-h light-dark cycle (lights on 7 am to […]). Testing was conducted during the light phase. Food and water were available ad libitum. Testing was conducted on fmr1-knockout mice and their wild-type littermates. Experiments were conducted according to requirements of the UK Animals (Scientific Procedures) Act, 1986. The animals were divided into four groups:
In one study, we used a “Successive Alleys Test” device. This device consists of four successive, linearly connected increasingly anxiogenic alleys. Each succeeding alley was painted a lighter color, had lower walls and/or was narrower than the previous alley. Animals were placed at the closed end of alley 1 (A1), facing the end wall. The latency to first enter each alley (A2, A3, and/or A4), the amount of time spent in each alley, and the number of entries into each alley were recorded during a total test time of 300 seconds.
For a Successive Alleys Test, we measured the number of entries in Alley 1 (A1), Alley 2 (A2), Alley 3 (A3), and Alley 4 (A4) for each of the 4 groups of animals described above.

[3] = test system: fmr1-knockout mice and wild-type mice; experiment: Marble burying; format: in vivo
Experimental: Mice were placed in an enclosed environment with a bed of wood shavings. Ten (10) marbles were introduced into the environment, and the number of marbles buried was determined by visual observation (median±interquartile range (IQR)).

[4] = test system: Male patients having Fragile X Syndrome
Experimental: Symptoms are evaluated using one or more of the clinical evaluative tools discussed herein above. Each patient is scored according to one or more clinical evaluative tool for one or more of Repetitive Behavior (RBB), Anxiety, and Sociability. A Clinical Global Impression-Severity (CGI-S) score of 4 or greater, or an ABC total score of 30 or greater are enrolled.
The enrolled patients are divided into groups. […] Placebo (n=20) is strawberry diluent and water.
Efficacy is determined using Clinical Global Impression of Severity (CGI-S), Clinical Global Impression of Improvement (CGI-I), Fragile X Syndrome Rating Scale, clinician-completed Fragile X Domain Specific Concerns (Visual Analog Scale), Caregiver Top Three Concerns (Visual Analogue Scale), Aberrant Behavior Checklist, Vineland Adaptive Behavior Scale, CASI-16, CYBOCS-PDD, seizure diary, computerized eye tracking, computerized measurement of cognition using the KiTap, and the Expressive Language Sampling Task.
Serum levels and changes of standard hematology and chemistry parameters (including thyroid function) are calculated from Baseline through to Day 70. Fundoscopy and tonsil size is documented at Baseline, and Days 14, 28, 42, 36, 70 and 84. […] ECG is assessed at Screening, Baseline, Days 28, 42, 36 and 70. […]

[5] = test system: adult MeCP2+/- mice; experiment: Ocular dominance (OD) plasticity, optical imaging of intrinsic signals; format: in vivo; settings: 4 days monocular deprivation
Experimental: Adult (>P60) wild type (SVEV or BL6) and MeCP2 (+/−) mutant females (BL6) are used for this experiment. The wild type control group is composed of both wild type littermates of MeCP2+/− females or wild type age matched SVEV females. For monocular deprivation, animals are anesthetized with Avertin (0.016 ml/g) and the eyelids of one eye is sutured for 4 days. Prior to imaging, the suture is removed and the deprived eye re-opened. Only animals in which the deprivation sutures are intact and the condition of the deprived eye appears healthy are used for the imaging session. For cG-2-AllylP signaling activation, a solution containing cG-2-AllylP is injected intra-peritoneally (IP) daily for the entire period of deprivation. For the imaging sessions mice are anesthetized with urethane (1.3 g/kg; 20% of the full dosage is administered IP each 20-minutes up to the final dosage, 0.02 ml of cloroprothixene 1% is also injected together with the first administration). The skull is exposed and a custom-made plate is glued on the head to minimize movement. The skull is thinned over VI with a dremel drill and covered with an agarose solution in saline (1.3%) and a glass coverslip. During the imaging session, the animal is constantly oxygenated, its temperature maintained with a heating blanket and the eyes periodically treated with silicone oil; physiological conditions are constantly monitored. […]

C=CC[C@]12CCCN1C(=O)CNC2=O [cG-2-AllylP, (8aS)-Allyl-hexahydropyrrolo[1,2-a]pyrazine-1,4-dione]
life expectancy ([1]; MeCP2-/y mice, 20 mg/kg daily intra-peritoneal from P15): increase in life expectancy | survival ([1]; 20 mg/kg/day intraperitoneally from 4 weeks): survive substantially longer than saline-treated mice | survival ([1]; oral, 20 or 80 mg/kg daily): survival is increased substantially | safety concerns ([1]; mecp2 mice, 20 mg/kg/day intraperitoneally): No safety concerns are raised | number of entries into arm A1 ([2]; fmr1-knockout animals): about 4 times | number of entries into arm A2 ([2]; fmr1-knockout animals): about 4 times | number of entries into arm A3 ([2]; fmr1-knockout animals): about 4 times | number of entries into arm A4 ([2]; fmr1-knockout animals): about 3 times | open arm entries ([2]; fmr1-knockout animals vs vehicle, p<0.001): significant reduction in open arm entries | time spent in the center ([2]; fmr1-knockout animals vs vehicle, p<0.005): significant reduction | number of entries into arm A1 ([2]; wild-type animals): about 2 times | number of entries into arm A2 ([2]; wild-type animals): about 4 times | marbles buried ([3]; fmr1-knockout animals): 80% | number of marbles buried (median) ([3]; fmr1-knockout animals): 8 of 10 marbles | marbles buried ([3]; wild-type mice): 100% | number of marbles buried ([3]; wild-type mice): 10 out of 10 | clinical outcomes (evaluative tools) ([4]; 35 or 70 mg/kg b.i.d. oral, 28 days): clinically relevant and significant effects to improve clinical outcomes | pERK and pAkt levels ([4]; peripheral lymphocytes): normalizes pERK and pAkt levels | OD plasticity [5]: reduces the OD plasticity
